According to patent US11612583B2, “Disease modifying methods for treating neurodegenerative diseases using nootropic agents” (priority 2018, dated 2023):

Legend:
Type in all cases: cell-based, mouse
[1] = system: primary cortical neurons treated with rotenone; test: Oxygen consumption rates (XF24e Extracellular Flux Analyzer) in rotenone-treated primary cortical neurons; settings: after rotenone 65 nM 24 hours, 24 hrs
Method: Rotenone (1.26 mM stock, Sigma, Cat #R8875) was freshly prepared in water prior to each use. Stocks of rotenone were maintained in the dark at −20° C. for up to 6 months. Rotenone was used at 65 μM for neuroblastoma cells and at 65 nM for primary cortical neurons for 4-6 hours to induce oxidative and autophagic stress.
Forskolin (Coleus forskohlii, >98% HPLC, Sigma Aldrich) was prepared in DMSO as 5 mg/ml stocks (stable for up to 6 months if kept in the dark and stored in −20° C. until ready to use). On the day of the experiment, the forskolin aliquot was thawed and cells were treated once with forskolin at a concentration of 1 to up to 10 μM of forskolin in complete media for treating primary cortical neurons or for intraperitoneal administration of PINK1 knockout mice or PINK1 knockout rats.
Rotenone-treated primary neurons were then exposed to 250 μM dibutyryl cyclic AMP (dbt-cAMP) or with the parental or water-soluble form (NKH477) of Forskolin (6.5 μM-8.5 μM, 24 hrs). The basal oxygen consumption rates (OCRs), a proxy for mitochondrial function, were analyzed by using an XF24^e Extracellular Flux Analyzer (Agilent Technologies). The maximal oxygen consumption rates (OCRs), a proxy for maximal buffering capacity of mitochondrial function, were also analyzed by using an XF24^e Extracellular Flux Analyzer in primary cortical neurons treated with 1 μM FCCP, an ionophore that acts as a mitochondrial uncoupler.

[2] = system: primary cortical neurons treated with rotenone; test: Extracellular acidification rates (ECARs), proxy for glycolysis, in rotenone-treated primary cortical neurons; settings: after rotenone 65 nM 24 hours, 6.5 μM-8.5 μM, FIG. 3
Method: Rotenone (1.26 mM stock, Sigma, Cat #R8875) was freshly prepared in water prior to each use. Stocks of rotenone were maintained in the dark at −20° C. for up to 6 months. […]
The extracellular acidification rates (ECARs), a proxy for glycolysis, were also assessed by using an XF24^e Extracellular Flux Analyzer in primary neurons.

[3] = system: primary cortical neurons treated with rotenone; test: Image-based analysis of mitochondrial content in dendrites (MAP2B/TOM20 immunostaining); settings: after rotenone 65 nM; Forskolin/NKH477 6.5 μM-8.5 μM or 250 μM dbt-cAMP; FIG. 4
Text: The rotenone-treated neurons were also studied by image-based analyses of mitochondrial content in dendrites from primary cortical neurons immunostained for dendrites (MAP2B) and for mitochondria (TOM20).

[4] = system: primary cortical neurons treated with rotenone; test: Dendrite length analysis (MAP2B immunostaining); settings: after rotenone 65 nM; Forskolin/NKH477 6.5 μM-8.5 μM or 250 μM dbt-cAMP; FIG. 5
primary cortical neurons = test: Rotenone toxicity in primary cortical neurons; settings: 24 hours

Compound | spare respiratory capacity (Maximal OCRs-Baseline OCRs) ([1]; 6.5 μM-8.5 μM, 1 μM FCCP, FIG. 2) | baseline mitochondrial respiration (basal OCRs) ([1]; Forskolin or NKH477 6.5 μM-8.5 μM, FIG. 1) | glycolysis (baseline ECARs) [2] | mitochondrial content in dendrites (% of dendrites occupied by mitochondria) [3] | dendrite arbors (total dendrite length per neuron) [4] | LD50 concentration (primary cortical neurons)
C=C[C@@]1(C)CC(=O)[C@]2(O)[C@@]3(C)[C@@H](O)CCC(C)(C)[C@@H]3[C@H](OC(=O)CCN(C)C)[C@H](OC(C)=O)[C@@]2(C)O1.Cl [NKH477] | completely restored | partially or completely restored | completely restored normal glycolytic function | completely blocked | completely blocked | –
CCCC(=O)Nc1ncnc2c1ncn2[C@@H]1O[C@@H]2COP(=O)(O)O[C@H]2[C@H]1OC(=O)CCC [dbt-cAMP, dibutyryl cyclic AMP] | – | – | – | reversed the loss of mitochondria within dendrites | reversed the loss of dendrites | –
C=C(C)[C@H]1Cc2c(ccc3c2O[C@@H]2COc4cc(OC)c(OC)cc4[C@@H]2C3=O)O1 [rotenone, Rotenone] | – | – | – | – | – | 65 nM
